Data taken from patent publication US20260053812A1, “METHODS OF TREATING HYPERTENSION WITH A COMBINATION OF AN ALDOSTERONE SYNTHASE INHIBITOR AND A DIURETIC” (Mineralys Therapeutics, Inc., priority 2022, published 2026).
Like-named read-outs stand apart in the source and are kept apart here. Marks after values point to notes of the source that are not given here.

Columns and labels:
Format in all cases: in vivo, human
[1] = Serum potassium
Text: Safety endpoints of this study are: • (a) Incidence and severity of all spontaneously reported adverse events (AEs) • (b) Changes in vital signs (standing SBP, standing DBP, body temperature, heart rate, and respiratory rate) • (c) Changes in electrocardiogram parameters (including cardiac intervals: PR, QRS, QT, and corrected QT interval using Fridericia's formula) • (d) Changes in clinical laboratory assessments (hematology, chemistry, coagulation, and urinalysis) • (e) Change in office-measured SBP from Study Week 8 (end-of-treatment period to end of follow up (i.e. end of Study Week 12 for Part 1 and end of Study 10 for Part 2).
The Safety Analysis Set includes all enrolled subjects who received at least one dose of study treatment (MLS-101 or placebo). In analyses performed on the Safety Analysis Set, subjects will be analyzed according to their actual treatment received.

[2] = Pharmacokinetics (plasma concentration, Cmax, AUC, trough); conditions: for concentration at 7 day: human, plasma, oral, Day 7, read-out: Trough plasma concentration, Geo Mean
Text: Pharmacokinetic endpoints of this study are PK parameters, including, of area under the plasma concentration versus time curve (AUC), maximum plasma concentration (Cmax), time to maximum concentration (Tmax), and half-life (t1/2) will be summarized descriptively for Randomization (baseline) and Study Weeks 1, 4, and 8
PK/PD Analysis Set includes all subjects in the SAF who have sufficient data available for the analysis of pharmacokinetic and pharmacodynamic measurements. In the analyses based on PKPD, subjects will be analyzed according to the actual treatment received.

[3] = test system: subjects with uncontrolled hypertension; assay: Seated automated office blood pressure (AOBP), randomized placebo-controlled dose-ranging study; conditions: for Automated office DBP, mean CFB at Week 8: Part 1
Method: A randomized, double-blinded, placebo-controlled, dose-ranging, multicenter study was conducted to evaluate the effect of orally administered Compound A HBr on blood pressure for the treatment of hypertension in male and female subjects ≥18 years of age.
The study consists of two parts. For enrollment into Part 1 of the study, a subject's value of plasma renin activity (PRA) must be ≤1 ng/mL/h based on morning measurement. If the value of PRA >1 ng/mL/h based on morning measurement, then subjects may be eligible to enter Part 2 of the study.
For Part 1, 163 enrolled subjects ≥18 years of age were randomized into 6 equal treatment groups (1:1:1:1:1:1) to 12.5 mg BID, 25 mg BID, 12.5 mg QD, 50 mg QD, 100 mg QD, or placebo. After a review of interim clinical data, the 2 lowest dose levels (12.5 mg QD and 12.5 mg BID) were stopped for future randomization due to a lack of consistent meaningful reduction of blood pressure, but the patients randomized to that point remained in the study through completion. Thus, after the review of interim clinical data, subjects were randomized into 4 equal treatment groups (1:1:1:1) to 25 mg BID, 50 mg QD, 100 mg QD, or placebo.
For Part 2, 36 enrolled subjects ≥18 years of age were randomized (5:1) to either 100 mg QD Compound A HBr or placebo such that the Compound A HBr treatment group consisted of approximately 30 subjects and the placebo treatment group will consist of approximately 6 subjects.
Subjects orally administered the assigned study drug (Compound A HBr or placebo) according to the assigned dosing regimen for 8 weeks beginning on Study Day 1. All subjects in Part 1 (regardless of dosing group) received BID dosing to preserve the integrity of the blind; active drug is administered as the morning dose for all QD dose groups. Subjects returned to the research facility or were seen by the clinical investigator or approved home health care professional at the end of Study Weeks 1, 2, 3, 4, 5, 6, 7, and 8 (±2 days) for protocol-defined efficacy and safety assessments and procedures, assessment of adverse events (AEs), and confirmation of compliance with study drug usage. Subjects also completed a telephone visit and blood pressure (BP) check at home approximately 3 days post last dose of study drug. Subjects attended up to 14 full clinic visits, including a pre-Screening visit, a Screening/start of Placebo Run-in visit, a second visit during Placebo Run-in, a clinic visit to initiate the ABPM procedure, a Randomization visit, 8 weekly visits during double-blind treatment, and an end-of-study visit scheduled 4 weeks after the last study treatment for final efficacy and safety assessments.
An automated oscillometric sphygmomanometer device was used to measure the subjects' systolic and diastolic blood pressure in office after approximately 5 minutes of rest in the seated position.
The primary endpoint is the change in office-measured (mean of last 2 of 5 unattended measurements using an automated oscillometric sphygmomanometer device after approximately 5 minutes of rest in the seated position) systolic blood pressure (SBP) from baseline to the end of Study Week 8.
Secondary endpoints of this study were: • (a) Change in 24-hour ambulatory blood pressure monitoring (ABPM) parameters (systolic and diastolic) from baseline to the end of Study Week 7. • (b) Change in office-measured SBP from baseline to the end of Study Weeks 1, 2, 3, 4, 5, 6, and 7. • (c) Change in office-measured diastolic blood pressure (DBP) from baseline to the end of Study Weeks 1, 2, 3, 4, 5, 6, 7, and 8. • (d) Proportion of subjects who achieve office-measured BP of ≤130/80 mm Hg by the end of Study Week 8.
For AOBP measurements and any other clinical or laboratory variable for which there are replicate evaluations at the screening and baseline visits, baseline is defined as the mean of the last two non-missing values prior to first administration of the IMP for the double-blinded treatment period.

[4] = steady state, Day 28, 100 mg QD Part 1

CC(=O)N[C@H]1CC[C@H](NC(=O)CN2CCN(c3nncc(-c4ccc(C)cc4)n3)CC2)CC1 [Compound A HBr]
Increase in potassium levels relative to baseline ([1]; 25 mg BID Part 1, Week 8): 0.341 mmol/L
Serum K+ Mean Change from Baseline to Wk 8 ([1]; 50 mg QD (n = 28)): +0.25 mmol/L
Serum K+ Mean Change from Baseline to Wk 8 ([1]; 100 mg QD (n = 61)): +0.29 mmol/L
Increase in potassium levels relative to baseline ([1]; 100 mg QD Part 2, Week 8): 0.208 mmol/L
Number of individuals with verified or multiple increased serum K+ 5.2-5.5 mMol/L during treatment ([1]; 100 mg QD, Part 1): 5
Number of individuals with verified or multiple increased serum K+ 5.6-6.0 mMol/L during treatment ([1]; 100 mg QD, Part 1): 3
Number of individuals with verified or multiple increased serum K+ 6.1-6.5 mMol/L during treatment ([1]; 100 mg QD, Part 1): 0
Percent of individuals with increased serum K+ 5.2-5.5 mMol/L ([1]; 100 mg QD, Part 1): (18.5%)
Percent of individuals with increased serum K+ 5.6-6.0 mMol/L ([1]; 100 mg QD, Part 1): (10.7%)
Number of individuals with increased serum K+ >6.5 mMol/L during treatment ([1]; 100 mg QD, Part 1, isolated incident not verified by repeat measurement): 1*
Number of individuals with verified or multiple increased serum K+ 5.2-5.5 mMol/L during treatment ([1]; 100 mg QD, Part 2): 1
Number of individuals with verified or multiple increased serum K+ 5.6-6.0 mMol/L during treatment ([1]; 100 mg QD, Part 2): 0
Number of individuals with verified or multiple increased serum K+ 6.1-6.5 mMol/L during treatment ([1]; 100 mg QD, Part 2): 0
Number of individuals with verified or multiple increased serum K+ >6.5 mMol/L during treatment ([1]; 100 mg QD, Part 2): 0
Percent of individuals with increased serum K+ 5.2-5.5 mMol/L ([1]; 100 mg QD, Part 2): (4%)
Number of individuals with verified or multiple increased serum K+ 5.2-5.5 mMol/L during treatment ([1]; 100 mg QD, Pooled): 6
Number of individuals with verified or multiple increased serum K+ 5.6-6.0 mMol/L during treatment ([1]; 100 mg QD, Pooled): 3
Number of individuals with verified or multiple increased serum K+ 6.1-6.5 mMol/L during treatment ([1]; 100 mg QD, Pooled): 0
Number of individuals with verified or multiple increased serum K+ >6.5 mMol/L during treatment ([1]; 100 mg QD, Pooled): 0
Percent of individuals with increased serum K+ 5.2-5.5 mMol/L ([1]; 100 mg QD, Pooled): (10.3%)
Percent of individuals with increased serum K+ 5.6-6.0 mMol/L ([1]; 100 mg QD, Pooled): (5.2%)
Change in group mean serum potassium (K+), Mean ([1]; Part 1, N 26*): +0.50 mMol/L
Change in group mean serum potassium (K+) ([1]; Part 1, N 26* (dose not given in Table 5)): +0.50 mMol/L
Change in group mean serum potassium (K+), Mean ([1]; Part 2, N 31): +0.23 mMol/L
Change in group mean serum potassium (K+) ([1]; Part 2, N 31 (dose not given in Table 5)): +0.23 mMol/L
Change in group mean serum potassium (K+), Mean ([1]; Pooled, N 57): +0.35 mMol/L
Change in group mean serum potassium (K+) ([1]; Pooled, N 57 (dose not given in Table 5)): +0.35 mMol/L
Serum potassium levels ([1]; active treatment cohorts compared with placebo, Parts 1 and 2): increased
Episodes of severe hyperkalemia ([1]; pooled (Part 1 and Part 2) 100 mg QD safety set (n=60)): no episodes of severe hyperkalemia
Subjects with transient elevated serum potassium greater than 6.0 mmol/L ([1]; whole study, none an SAE, all resolved after discontinuation or dose adjustment, listed as lorundrostat): seven
Systemic exposure expressed as Cmax or AUC ([2]; across doses): increased with increasing dose
concentration at 7 day ([2]; 12.5 mg, 12.5 mg BID): 20.4 ng/mL
concentration at 7 day ([2]; 12.5 mg, 12.5 mg QD): 6.55 ng/mL
concentration at 7 day ([2]; 25 mg, 25 mg BID): 49.6 ng/mL
concentration at 7 day ([2]; 50 mg, 50 mg QD): 16.6 ng/mL
concentration at 7 day ([2]; 100 mg, 100 mg QD Part 1): 53.4 ng/mL
concentration at 7 day ([2]; 100 mg, 100 mg QD Part 2): 35.1 ng/mL
AUC0-24, Median [2, 4]: 15000 ng·h/mL
Cmax, Geo Mean [2, 4]: 1370 ng/mL
Placebo-corrected mean change in AOBP systolic BP, Full-analysis set ([3]; 100 mg, Part-1 and Part-2 (interim) combined, N=58 active): −9.9 mmHg
Automated office DBP, mean CFB at Week 8 ([3]; 12.5 mg BID, BMI <25 kg/m^2): 6.00 mmHg
Automated office DBP, mean CFB at Week 8 ([3]; 50 mg QD, Seated SBP Tertile Low): −2.42 mmHg
Automated office DBP, mean CFB at Week 8 ([3]; 100 mg QD, BMI 25-30 kg/m^2): −6.50 mmHg
Automated office DBP, mean CFB at Week 8 ([3]; 100 mg QD, Seated SBP Tertile Middle): −6.17 mmHg
Automated office DBP, mean CFB at Week 8 ([3]; 100 mg QD, thiazide diuretic use at baseline No): −4.00 mmHg
Blood pressure reduction in individuals receiving a thiazide diuretic as background medication ([3]; observed across dosing cohorts): particularly effective
Blood pressure reduction in individuals with BMI greater than 30 ([3]; observed across dosing cohorts): particularly effective
Subjects with change in BPsys >−15 mmHg ([3]; pooled 50 mg QD, 100 mg QD, 12.5 mg BID, 25 mg BID cohorts (N=103), week 8): 41%
